Among the data in ChEMBL document CHEMBL3217575, “Design, synthesis and molecular modelling of novel methyl[4-oxo-2-(aroylimino)-3-(substituted phenyl)thiazolidin-5-ylidene]acetates as potent and selective aldose reductase inhibitors” (Medchemcomm, 2012) are inhibition and IC50 values, retold here.

Experiment [1] is filed under the species Bos taurus. Nature of the experiment: Inhibition of purified calf kidney ALR1 at 0.6 mM preincubated for 10 mins by UV spectrophotometry. The format is tissue-based.
Experiment [2] is described as follows: Inhibition of purified calf eye lens ALR2 preincubated for 10 mins by UV spectrophotometry. It counts as tissue-based, Bos taurus, Lens of camera-type eye.
The species named for experiment [3] is Bos taurus. Nature of the experiment: Inhibition of purified calf eye lens ALR2 at 0.6 mM preincubated for 10 mins by UV spectrophotometry. Particulars: Lens of camera-type eye. It counts as tissue-based.
Experiment [4] is described as follows: Inhibition of purified calf kidney ALR1 preincubated for 10 mins by UV spectrophotometry. It counts as tissue-based, Bos taurus.

`COC(=O)/C=C1/S/C(=N\C(=O)c2ccccc2Cl)N(c2ccccc2)C1=O`: the inhibition in experiment [1] came out at 19.2%. Moreover, inhibition in experiment [2] was half-maximal at 5.21 µM (IC50).
In the case of `COC(=O)/C=C1/S/C(=N\C(=O)c2ccccc2C)N(c2cccc(OC)c2)C1=O`, the inhibition in experiment [1] was 27.8%; in experiment [3] it was 43.8%.
`COC(=O)/C=C1/S/C(=N\C(=O)c2cccc(C)c2)N(c2cccc(Cl)c2)C1=O` returned an inhibition in experiment [1] of 42.6%. In addition, the IC50 in experiment [2] turned out to be 4.52 µM.
As for `COC(=O)/C=C1/S/C(=N\C(=O)c2ccccc2)N(c2ccccc2OC)C1=O`, in experiment [1], the inhibition came to 41.2%. In experiment [2], this molecule displayed a half-maximal inhibitory concentration (IC50) of 2.82 µM.
In experiment [4], `CCCC(CCC)C(=O)O` [VALPROIC ACID] showed an IC50 of 57.4 µM. This lies in the double-digit micromolar range.
In the case of `COC(=O)/C=C1/S/C(=N\C(=O)c2ccc(C)cc2)N(c2cccc(Cl)c2)C1=O`, the inhibition was found to be 43.5% in experiment [1] and 44.3% in experiment [3].
In experiment [1], `COC(=O)/C=C1/S/C(=N\C(=O)c2ccc(Cl)cc2)N(c2cccc(Cl)c2Cl)C1=O` yielded an inhibition of 15.3%. In experiment [2], this molecule displayed a half-inhibitory concentration (IC50) of 12.4 µM.
`COC(=O)/C=C1/S/C(=N\C(=O)c2ccccc2)N(c2cccc3ccccc23)C1=O`: the inhibition in experiment [1] was 44.3%. The molecule also returned a half-inhibitory concentration (IC50) in experiment [2] of 3.19 µM.
On the same counts, the results for `COC(=O)/C=C1/S/C(=N\C(=O)c2ccc([N+](=O)[O-])cc2)N(c2ccccc2F)C1=O` are 49.5% and 36.1 µM.
The molecule `COC(=O)/C=C1/S/C(=N\C(=O)c2ccccc2Br)N(c2ccc(Cl)cc2Cl)C1=O` yielded an inhibition in experiment [1] of 72.7%. Besides, the IC50 in experiment [2] amounted to 2.54 µM.
On to `COC(=O)/C=C1/S/C(=N\C(=O)c2ccccc2Br)N(c2cccc(Cl)c2Cl)C1=O`, for which, in experiment [1], the inhibition stood at 51.4%. Also, the IC50 in experiment [2] turned out to be 9.42 µM.
In turn, `COC(=O)/C=C1/S/C(=N\C(=O)c2cccc(C)c2)N(c2ccccc2)C1=O` had an inhibition in experiment [1] of 31.5%. Besides, the midpoint of inhibition in experiment [2], the IC50, lay at 9.75 µM.
For `COC(=O)/C=C1/S/C(=N\C(=O)c2ccc3ccccc3c2)N(c2ccccc2)C1=O`, the inhibition in experiment [1] came out at 49.1%. Besides, the IC50 in experiment [2] was determined as 5.12 µM.
In the case of `COC(=O)/C=C1/S/C(=N\C(=O)c2ccc([N+](=O)[O-])cc2)N(c2ccc(F)c(Cl)c2)C1=O`, the inhibition in experiment [1] worked out at 38.4%; in experiment [3] it was 47.7%.
For `O=C1NC(=O)[C@@]2(CCOc3ccc(F)cc32)N1` [SORBINIL], it took 3.14 µM to reach half-maximal inhibition in experiment [2] (IC50).
`COC(=O)/C=C1/S/C(=N\C(=O)c2cccc(C)c2)N(c2ccccc2OC)C1=O`: the inhibition in experiment [1] came out at 32.4%. The molecule also registered an IC50 in experiment [2] of 6.26 µM.
